Assay [1] concerns the target T1, recombinant human ALK5 (TGF-βR1) protein (Homo sapiens, UniProt P36897).
T1 construct: purchased Life Technologies PR9075A
T1 sequence (P36897 34-503): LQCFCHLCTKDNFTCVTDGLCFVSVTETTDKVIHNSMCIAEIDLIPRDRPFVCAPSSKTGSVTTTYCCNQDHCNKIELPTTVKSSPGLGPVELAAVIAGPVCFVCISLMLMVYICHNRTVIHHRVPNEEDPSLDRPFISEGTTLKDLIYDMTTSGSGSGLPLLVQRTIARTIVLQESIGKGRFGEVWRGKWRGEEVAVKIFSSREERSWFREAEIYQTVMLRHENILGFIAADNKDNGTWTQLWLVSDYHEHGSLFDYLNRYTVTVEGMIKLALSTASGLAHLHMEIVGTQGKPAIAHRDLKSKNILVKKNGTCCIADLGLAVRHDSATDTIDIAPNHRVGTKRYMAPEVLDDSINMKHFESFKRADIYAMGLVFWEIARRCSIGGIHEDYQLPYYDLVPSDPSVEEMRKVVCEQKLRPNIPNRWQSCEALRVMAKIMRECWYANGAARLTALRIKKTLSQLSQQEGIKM
Briefly: Biochemical ALK5 (TGF-βR1) assay to measure pKi (LANCE Ultra ULight kinase assay). The following applies: apparent pKi, converted from pIC50 using the Cheng-Prusoff equation. In short, it runs like this:
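TR-FRET kinase format: compound dose range 10 μM–25 pM equilibrated 60 min with human ALK5 and ULight-labelled topoisomerase 2α peptide in HEPES/MgCl2 buffer pH 7.5 with DTT. Reaction started with ATP (125 μM stock, 5× final), 60 min at 37° C, stopped with EDTA/Eu-anti-phospho antibody; pKi derived from pIC50 via Cheng-Prusoff.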
In general terms: Time-resolved FRET reads energy transfer from a long-lived donor to a nearby acceptor.

For assay [2], the system named is TGF-β-stimulated SMAD3 phosphorylation in BEAS-2B cells. Put plainly: Cellular ALK5 potency assay, inhibition of TGF-β stimulated pSMAD3 formation in BEAS-2B cells. The format is cell-based. The following applies: Homo sapiens, inhibition of TGF-β (10 ng/mL) stimulated pSMAD3 formation, 1 hour compound incubation, read-out: BEAS2B pIC50 (converted). The method in brief: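 Phospho-SMAD3 was quantified by AlphaLISA in lysates of human lung epithelial BEAS-2B cells. Compound was added 1 h (37 °C, HEPES/BSA-supplemented HBSS) before a 30 min challenge with 10 ng/mL TGF-β. Values are pIC50 relative to stimulated cells without compound.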

Where only a bound is given, the exact number is not on record here.

Consider `Fc1ccc(Cl)cc1-c1n[nH]cc1-c1ccc2ncc(-c3[nH]nc4c3CNCC4)cc2n1` [Compound 1-115, 2-[3-(5-chloro-2-fluoro-phenyl)-1H-pyrazol-4-yl]-7-(4,5,6,7-tetrahydro-2H-pyrazolo[4,3-c]pyridin-3-yl)-1,5-naphthyridine], for which the Ki in assay [1] was 0.0398 to 0.316 nM. For the same molecule, the IC50 in assay [2] is 25.1 to 158 nM.

`CNCCn1cc(-c2cnc3ccc(-c4c[nH]nc4-c4cc(Cl)ccc4F)nc3c2)nn1` [Compound 1-131, 2-[4-[6-[3-(5-chloro-2-fluoro-phenyl)-1H-pyrazol-4-yl]-1,5-naphthyridin-3-yl]triazol-1-yl]-N-methyl-ethanamine]: the Ki in assay [1] is 0.0398 to 0.316 nM. In addition, in assay [2], the IC50 is at most 20 nM.

As to `O=C(O)[C@H]1CN(c2cnc3ccc(-c4c[nH]nc4-c4cc(Cl)ccc4F)nc3c2)CCN1` [Compound 1-130, (2R)-4-[6-[3-(5-chloro-2-fluoro-phenyl)-1H-pyrazol-4-yl]-1,5-naphthyridin-3-yl]piperazine-2-carboxylic acid], the Ki in assay [1] was 0.398 to 3.16 nM. Also, in assay [2], the IC50 was 200 to 1260 nM.

`CC(C)N1CCN(CCNc2cnc3ccc(-c4c[nH]nc4-c4cccc(Cl)c4)nc3c2)CC1` [Compound 28-1, 6-(3-(3-chlorophenyl)-1H-pyrazol-4-yl)-N-(2-(4-isopropylpiperazin-1-yl)ethyl)-1,5-naphthyridin-3-amine]: the Ki in assay [1] is 0.0398 to 0.316 nM. Besides, the IC50 in assay [2] was 25.1 to 158 nM.

On to `Fc1ccc(Cl)cc1-c1nc2ccccn2c1-c1ccc2ncc(N3CCCNCC3)cc2n1` [Compound 3-3, 2-[2-(5-chloro-2-fluoro-phenyl)imidazo[1,2-a]pyridin-3-yl]-7-(1,4-diazepan-1-yl)-1,5-naphthyridine], for which the Ki in assay [1] is 0.0398 to 0.316 nM. The IC50 in assay [2] is 25.1 to 158 nM.

With `COC(=O)CC1CN(c2cnc3ccc(-c4c[nH]nc4-c4cc(Cl)ccc4F)nc3c2)CCN1` (stereo not shown) [Compound 1-136, methyl 2-[4-[6-[3-(5-chloro-2-fluoro-phenyl)-1H-pyrazol-4-yl]-1,5-naphthyridin-3-yl]piperazin-2-yl]acetate], the Ki in assay [1] was 0.0398 to 0.316 nM. For the same molecule, the IC50 in assay [2] was at most 20 nM.

Take `C[C@@H]1CN(CCNc2cnc3ccc(-c4nc[nH]c4-c4cccc(Cl)c4)cc3c2)C[C@H](C)N1` [Compound 24-3, 6-[5-(3-chlorophenyl)-1H-imidazol-4-yl]-N-[2-[(3R,5S)-3,5-dimethylpiperazin-1-yl]ethyl]quinolin-3-amine]: in assay [1], the Ki was 0.398 to 3.16 nM. Further, the IC50 in assay [2] was 25.1 to 158 nM.

As for `Fc1ccc(Cl)cc1-c1[nH]cnc1-c1ccc2ncc(Nc3ccc(N4CCN(Cc5ccccc5)CC4)cn3)cc2n1` [Compound 2-27, N-[5-(4-benzylpiperazin-1-yl)-2-pyridyl]-6-[5-(5-chloro-2-fluoro-phenyl)-1H-imidazol-4-yl]-1,5-naphthyridin-3-amine], the Ki in assay [1] was 3.98 to 31.6 nM. Besides, in assay [2], the IC50 was 25.1 to 158 nM.

Turning to `CN1CCN(C2CCN(c3cnc4ccc(-c5c[nH]nc5-c5cc(Cl)c(F)cc5F)nc4c3)CC2)CC1` [Compound 6-17, 2-[3-(5-chloro-2,4-difluoro-phenyl)-1H-pyrazol-4-yl]-7-[4-(4-methylpiperazin-1-yl)-1-piperidyl]-1,5-naphthyridine], the Ki in assay [1] is 0.0398 to 0.316 nM. Besides, the IC50 in assay [2] was 25.1 to 158 nM.

`Fc1ccc(Cl)cc1-c1[nH]nnc1-c1ccc2ncc(-c3c[nH]nc3C(F)(F)F)cc2n1` [Compound 5-2, 2-(5-(5-chloro-2-fluorophenyl)-1H-1,2,3-triazol-4-yl)-7-(3-(trifluoromethyl)-1H-pyrazol-4-yl)-1,5-naphthyridine]: in assay [1], the Ki was 3.98 to 31.6 nM. Besides, the IC50 in assay [2] was 25.1 to 158 nM.

Consider `Fc1ccc(Cl)cc1-c1n[nH]cc1-c1ccc2ncc(N3CCn4nc(N5CCN(Cc6ccccc6)CC5)cc4C3)cc2n1` [Compound 1-47, 7-[2-(4-benzylpiperazin-1-yl)-6,7-dihydro-4H-pyrazolo[1,5-a]pyrazin-5-yl]-2-[3-(5-chloro-2-fluoro-phenyl)-1H-pyrazol-4-yl]-1,5-naphthyridine], for which, in assay [1], the Ki is 0.0398 to 0.316 nM. In assay [2], the IC50 was 25.1 to 158 nM.

Consider `NCCn1cc(-c2cnc3ccc(-c4nc[nH]c4-c4ccc(F)c(F)c4)cc3c2)cn1` [Compound 23-1, 2-(4-(6-(5-(3,4-difluorophenyl)-1H-imidazol-4-yl)quinolin-3-yl)-1H-pyrazol-1-yl)ethan-1-amine], for which the Ki in assay [1] is 0.0398 to 0.316 nM. The IC50 in assay [2] was 25.1 to 158 nM.

Take `Fc1ccc(Cl)cc1-c1n[nH]cc1-c1ccc2ncc(NC3CNC3)cc2n1` [Compound 1-18, N-(azetidin-3-yl)-6-[3-(5-chloro-2-fluoro-phenyl)-1H-pyrazol-4-yl]-1,5-naphthyridin-3-amine]: the Ki in assay [1] is 0.0398 to 0.316 nM. Moreover, the IC50 in assay [2] is 25.1 to 158 nM.

As to `O=Cc1cnc2ccc(-c3c[nH]nc3-c3cc(Cl)ccc3F)nc2c1` [Compound 1-101, 6-[3-(5-chloro-2-fluoro-phenyl)-1H-pyrazol-4-yl]-1,5-naphthyridine-3-carbaldehyde], the Ki in assay [1] was 0.398 to 3.16 nM. For the same molecule, the IC50 in assay [2] was at most 20 nM.

For the molecule `CNC(=O)[C@H]1CN(c2cnc3ccc(-c4c[nH]nc4-c4cc(Cl)c(F)cc4F)nc3c2)CCN1C(C)C` [Compound 6-38, (2R)-4-[6-[3-(5-chloro-2,4-difluoro-phenyl)-1H-pyrazol-4-yl]-1,5-naphthyridin-3-yl]-1-isopropyl-N-methyl-piperazine-2-carboxamide], the Ki in assay [1] is 0.0398 to 0.316 nM. Further, the IC50 in assay [2] was 25.1 to 158 nM.

Consider `Fc1ccc(Cl)cc1-c1n[nH]cc1-c1ccc2ncc(-c3nnc4n3CCN4)cc2n1` [Compound 1-110, 2-[3-(5-chloro-2-fluoro-phenyl)-1H-pyrazol-4-yl]-7-(6,7-dihydro-5H-imidazo[2,1-c][1,2,4]triazol-3-yl)-1,5-naphthyridine], for which the Ki in assay [1] was 0.0398 to 0.316 nM. In addition, in assay [2], the IC50 was 200 to 1260 nM.

Take `Fc1ccc(Cl)cc1-c1[nH]cnc1-c1ccc2ncc(-c3cnc4n3CCNC4)cc2n1` [Compound 2-24, 2-[5-(5-chloro-2-fluoro-phenyl)-1H-imidazol-4-yl]-7-(5,6,7,8-tetrahydroimidazo[1,2-a]pyrazin-3-yl)-1,5-naphthyridine]: the Ki in assay [1] was 0.0398 to 0.316 nM. In addition, the IC50 in assay [2] is 25.1 to 158 nM.

With `CNCCn1cc(-c2cnc3ccc(-c4nc[nH]c4-c4cc(Cl)ccc4F)cc3c2)cn1` [Compound 17-2, 2-[4-[6-[5-(5-chloro-2-fluoro-phenyl)-1H-imidazol-4-yl]-3-quinolyl]pyrazol-1-yl]-N-methyl-ethanamine], the Ki in assay [1] was at most 0.0316 nM. Besides, the IC50 in assay [2] is 25.1 to 158 nM.

As to `CNC(=O)C1CN(c2cnc3ccc(-c4c[nH]nc4-c4cc(Cl)c(F)cc4F)nc3c2)CCN1` (racemic) [Compound 6-25, rac-(2R)-4-[6-[3-(5-chloro-2,4-difluoro-phenyl)-1H-pyrazol-4-yl]-1,5-naphthyridin-3-yl]-N-methyl-piperazine-2-carboxamide], in assay [1], the Ki was 0.0398 to 0.316 nM. Also, in assay [2], the IC50 was 25.1 to 158 nM.

For the molecule `COC(=O)CC1CN(CCNc2cnc3ccc(-c4nc[nH]c4-c4cc(Cl)ccc4F)nc3c2)CCN1` (stereo not shown) [Compound 2-36, methyl 2-[4-[2-[[6-[5-(5-chloro-2-fluoro-phenyl)-1H-imidazol-4-yl]-1,5-naphthyridin-3-yl]amino]ethyl]piperazin-2-yl]acetate], in assay [1], the Ki was 0.0398 to 0.316 nM. Besides, the IC50 in assay [2] was 25.1 to 158 nM.

Consider `Cc1nn2c(c1-c1cnc3ccc(-c4c[nH]nc4-c4cc(Cl)ccc4F)nc3c1)NCCC2` [Compound 1-120, 2-[3-(5-chloro-2-fluoro-phenyl)-1H-pyrazol-4-yl]-7-(2-methyl-4,5,6,7-tetrahydropyrazolo[1,5-a]pyrimidin-3-yl)-1,5-naphthyridine], for which, in assay [1], the Ki was 0.398 to 3.16 nM. Moreover, the IC50 in assay [2] is 25.1 to 158 nM.

As for `C[C@@H]1CN(CCNc2cnc3ccc(-c4c[nH]nc4-c4cc(Cl)c(F)cc4F)nc3c2)C[C@H](C)N1` [Compound 6-74, 6-[3-(5-chloro-2,4-difluoro-phenyl)-1H-pyrazol-4-yl]-N-[2-[rac-(3R,5S)-3,5-dimethylpiperazin-1-yl]ethyl]-1,5-naphthyridin-3-amine], in assay [1], the Ki was 0.0398 to 0.316 nM. In addition, the IC50 in assay [2] was 25.1 to 158 nM.

As for `Fc1ccc(Cl)cc1-c1n[nH]cc1-c1ccc2ncc(C3CCNC3)cc2n1` (stereo not shown) [Compound 1-99, 2-[3-(5-chloro-2-fluoro-phenyl)-1H-pyrazol-4-yl]-7-pyrrolidin-3-yl-1,5-naphthyridine], the Ki in assay [1] is 3.98 to 31.6 nM. In addition, in assay [2], the IC50 was 200 to 1260 nM.

Source of the values: patent US11730720B2, “ALK5 inhibitors” (THERAVANCE BIOPHARMA R&D IP, LLC, priority 2018, dated 2023).
